From ChEMBL document CHEMBL4483862, “Open-source discovery of chemical leads for next-generation chemoprotective antimalarials” (2018)
pIC50: −log10 of the molar value.

Test system: Plasmodium berghei
Test: Luciferase/luciferin-expressing antifolate-resistant parasites were used to infect a culture of HepG2 cells that were pre-incubated with compounds. Infected hepatocytes emit light due to the luciferase reaction. Assay results are presented as the percent inhibition of light emission compared to control. […]
Type: functional
Settings: sporozoite; for IC90: read-out: LUCIFERASE INFECTION ASSAY - IC90

| Structure (SMILES) | IC90 [µM] | further results |
| --- | --- | --- |
| COc1ccc(-c2csc3ncnc(N4CCN(c5ccccc5[N+](=O)[O-])CC4)c23)cc1 | > 10 | pIC50 (HEPG2TOX_HILL_SLOPE 5.61, HEPG2TOX_R_SQUARED 0.324, PBLUC_HILL_SLOPE 1.94, 2.89, PBLUC_R_SQUARED 0.358, 0.293, read-out: LUCIFERASE INFECTION ASSAY - IC50): 5.18 |
| O=C(Cn1ncc(Cl)c(Cl)c1=O)N1CCc2ccccc21 | > 10 | pIC50 (HEPG2TOX_HILL_SLOPE 5.62, HEPG2TOX_R_SQUARED 0.657, PBLUC_HILL_SLOPE 20.9, PBLUC_R_SQUARED 0.129, read-out: LUCIFERASE INFECTION ASSAY - IC50): 5.04 |
| N=C(N)NN=C1CCCCCCCCCCC1 | > 12 | pIC50 (HEPG2TOX_HILL_SLOPE 5.24, 2.64, HEPG2TOX_R_SQUARED 0.916, 0.913, PBLUC_HILL_SLOPE 15.5, 3.20, PBLUC_R_SQUARED 0.175, 0.492, read-out: LUCIFERASE INFECTION ASSAY - IC50): 4.93 |
| Cc1ccc(Cl)cc1NC(=O)C[n+]1ccc(Cc2ccc([N+](=O)[O-])cc2)cc1 | > 10 | pIC50 (HEPG2TOX_HILL_SLOPE 5.4, HEPG2TOX_R_SQUARED 0.89, PBLUC_HILL_SLOPE 4.32, PBLUC_R_SQUARED 0.492, read-out: LUCIFERASE INFECTION ASSAY - IC50): 5.21 |
| c1ccc2c(c1)oc1c(-c3ccc4nccn4c3)cccc12 | > 11.6 | pIC50 (HEPG2TOX_HILL_SLOPE 5.27, HEPG2TOX_R_SQUARED 0.667, PBLUC_HILL_SLOPE 2.08, PBLUC_R_SQUARED 0.703, read-out: LUCIFERASE INFECTION ASSAY - IC50): 5.34 |
| Oc1ccc(Cl)cc1/C=C/c1ccc2cccc(O)c2n1 | 6.73 | pIC50 (HEPG2TOX_HILL_SLOPE 5.53, HEPG2TOX_R_SQUARED 0.986, PBLUC_HILL_SLOPE 37.8, PBLUC_R_SQUARED 0.36, read-out: LUCIFERASE INFECTION ASSAY - IC50): 5.20 |
| Cc1c(Cl)cccc1N=C(SCC(=O)N1CCCCCC1)C(C#N)c1nc2ccccc2s1 (centres undefined) | > 10 | pIC50 (HEPG2TOX_HILL_SLOPE 5.36, HEPG2TOX_R_SQUARED 0.816, PBLUC_HILL_SLOPE 12.3, PBLUC_R_SQUARED 0.271, read-out: LUCIFERASE INFECTION ASSAY - IC50): 5.05 |
| Cc1ccc(C(C)CCN2CCC3(CC2)C(=O)N(C2Cc4ccccc4C2)C(=O)N3CC(C)C)o1 (centres undefined) | > 6.91 | pIC50 (HEPG2TOX_HILL_SLOPE 5.24, HEPG2TOX_R_SQUARED 0.932, PBLUC_HILL_SLOPE 15.5, PBLUC_R_SQUARED 0.389, read-out: LUCIFERASE INFECTION ASSAY - IC50): 5.20 |
| CCCNC(=O)c1c(NC(=O)c2ccc(F)c(F)c2F)nc2ccccn12 | > 8.77 | pIC50 (HEPG2TOX_HILL_SLOPE 5.13, HEPG2TOX_R_SQUARED 0.252, PBLUC_HILL_SLOPE 2.06, PBLUC_R_SQUARED 0.791, read-out: LUCIFERASE INFECTION ASSAY - IC50): 5.19 |
| Oc1ccc(Cl)cc1/C=N/Nc1cccc(C(F)(F)F)c1 | > 10.5 | pIC50 (HEPG2TOX_HILL_SLOPE 5.54, HEPG2TOX_R_SQUARED 0.477, read-out: LUCIFERASE INFECTION ASSAY - IC50): < 4.98 |
| COc1ccc(C(=O)OCC(=O)Nc2sccc2C(N)=O)cc1S(=O)(=O)N1CCCCC1C (centres undefined) | > 10 | pIC50 (HEPG2TOX_HILL_SLOPE 5.31, HEPG2TOX_R_SQUARED 0.826, PBLUC_HILL_SLOPE 1.98, PBLUC_R_SQUARED 0.24, read-out: LUCIFERASE INFECTION ASSAY - IC50): 5.29 |
| COc1ccccc1NC(=O)NCc1nc(-c2ccccc2)c[nH]1 | 5.1 | pIC50 (HEPG2TOX_HILL_SLOPE 5.47, HEPG2TOX_R_SQUARED 0.951, PBLUC_HILL_SLOPE 7.77, PBLUC_R_SQUARED 0.194, read-out: LUCIFERASE INFECTION ASSAY - IC50): 5.42 |
| COc1ccc(OC)c(CCNc2nc3cnc(-c4cccc(Cl)c4)cc3n2C)c1 | 1.4 | pIC50 (HEPG2TOX_HILL_SLOPE 5.61, HEPG2TOX_R_SQUARED 0.886, PBLUC_HILL_SLOPE 7.64, PBLUC_R_SQUARED 0.579, read-out: LUCIFERASE INFECTION ASSAY - IC50): 5.98 |
| CC1CCc2ccccc2N1CC(=O)c1cccn1C (centres undefined) | > 10 | pIC50 (HEPG2TOX_HILL_SLOPE 5.07, HEPG2TOX_R_SQUARED 0.0101, read-out: LUCIFERASE INFECTION ASSAY - IC50): < 5.00 |
| N#CC(Cc1cccc([N+](=O)[O-])c1)(c1ccccc1)c1ccccc1 | > 10 | pIC50 (HEPG2TOX_HILL_SLOPE 5.53, HEPG2TOX_R_SQUARED 0.223, PBLUC_HILL_SLOPE 1.93, PBLUC_R_SQUARED 0.0999, read-out: LUCIFERASE INFECTION ASSAY - IC50): < 5.00 |
| O=C(NC1CCOc2ccccc21)c1ccccc1Oc1ccccc1 (centres undefined) | > 10 | pIC50 (HEPG2TOX_HILL_SLOPE 5.41, HEPG2TOX_R_SQUARED 0.0143, read-out: LUCIFERASE INFECTION ASSAY - IC50): < 5.00 |

| Structure (SMILES) | IC90 [µM] | further results |
| --- | --- | --- |
| COc1ccc(C2c3c(C)nn(-c4ccccc4)c3N=C(c3ccccc3F)N2C2CC2)cc1 (centres undefined) | > 10 | pIC50 (HEPG2TOX_HILL_SLOPE 5.27, HEPG2TOX_R_SQUARED 0.234, read-out: LUCIFERASE INFECTION ASSAY - IC50): < 5.00 |
| CCC(C)(C)c1ccc(Oc2ccc(NC(=O)c3ccc(OC(F)F)c(OC)c3)cc2)cc1 | > 10 | pIC50 (HEPG2TOX_HILL_SLOPE 5.1, HEPG2TOX_R_SQUARED 0.781, PBLUC_HILL_SLOPE 1.15, PBLUC_R_SQUARED 0.697, read-out: LUCIFERASE INFECTION ASSAY - IC50): 5.59 |
| CCOC(=O)c1sc(N(NC(=O)c2ccccc2Cl)C(=O)c2ccccc2Cl)c2c1CC(C)(C)CC2=O | > 5.9 | pIC50 (HEPG2TOX_HILL_SLOPE 5.11, HEPG2TOX_R_SQUARED 0.645, PBLUC_HILL_SLOPE 3.24, PBLUC_R_SQUARED 0.155, read-out: LUCIFERASE INFECTION ASSAY - IC50): 5.51 |
| COCCCN1C(=O)N(Cc2ccccc2)C(=O)C12CCN(Cc1cccc(C(F)(F)F)c1)CC2 | > 6.74 | pIC50 (HEPG2TOX_HILL_SLOPE 5.47, HEPG2TOX_R_SQUARED 0.316, read-out: LUCIFERASE INFECTION ASSAY - IC50): < 5.17 |
| Cc1cc2c(cc1C)C(NCCc1ccccc1)=NC(C)(C)C2 | 5.1 | pIC50 (HEPG2TOX_HILL_SLOPE 5.51, HEPG2TOX_R_SQUARED 0.604, PBLUC_HILL_SLOPE 9.09, PBLUC_R_SQUARED 0.396, read-out: LUCIFERASE INFECTION ASSAY - IC50): 5.40 |
| FC(F)(F)c1nc2ccccc2n1-c1cc(-c2ccccc2)n[nH]1 | > 10 | pIC50 (HEPG2TOX_HILL_SLOPE 5.49, HEPG2TOX_R_SQUARED 0.606, read-out: LUCIFERASE INFECTION ASSAY - IC50): < 5.00 |
| COC(=O)c1c(C)[nH]c(C(=O)Nc2nc(-c3cc(C)sc3C)cs2)c1C | > 10 | pIC50 (HEPG2TOX_HILL_SLOPE 5.44, HEPG2TOX_R_SQUARED 0.234, read-out: LUCIFERASE INFECTION ASSAY - IC50): < 5.00 |
| Cc1cc(C(O)(C(F)(F)F)C(F)(F)F)c(C)n1-c1ccc(N(C)C)cc1 | > 10 | pIC50 (HEPG2TOX_HILL_SLOPE 5.45, HEPG2TOX_R_SQUARED 0.58, PBLUC_HILL_SLOPE 4.49, PBLUC_R_SQUARED 0.403, read-out: LUCIFERASE INFECTION ASSAY - IC50): 5.12 |
| COc1ccc(NS(=O)(=O)c2ccc3oc(Nc4cc(C)on4)nc3c2)cc1 | 9.75 | pIC50 (HEPG2TOX_HILL_SLOPE 5.63, HEPG2TOX_R_SQUARED 0.393, PBLUC_HILL_SLOPE 4.89, PBLUC_R_SQUARED 0.566, read-out: LUCIFERASE INFECTION ASSAY - IC50): 5.21 |
| CCc1ccc(NC(=O)c2ccc(S(=O)(=O)N(C)C)cc2)cc1 | > 9.93 | pIC50 (HEPG2TOX_HILL_SLOPE 5.62, HEPG2TOX_R_SQUARED 0.338, PBLUC_HILL_SLOPE 17.2, PBLUC_R_SQUARED 0.289, read-out: LUCIFERASE INFECTION ASSAY - IC50): 5.01 |
| N#Cc1cccc(CN2CCN3C(C(=O)Nc4ccc(Oc5ccccc5)cc4)=COC3=NC2=O)c1 | > 10 | pIC50 (HEPG2TOX_HILL_SLOPE 5.43, HEPG2TOX_R_SQUARED 0.0351, read-out: LUCIFERASE INFECTION ASSAY - IC50): < 5.00 |
| FC(F)(F)c1cnc(N/N=C/c2cn(-c3ccccc3)nc2-c2cc3ccccc3o2)c(Cl)c1 | > 10 | pIC50 (HEPG2TOX_HILL_SLOPE 5.1, HEPG2TOX_R_SQUARED 0.771, read-out: LUCIFERASE INFECTION ASSAY - IC50): < 5.00 |
| Cc1cccc(COc2cccc(C(=O)Nc3cccc(Cn4ccnc4)c3)c2)c1 | > 10 | pIC50 (HEPG2TOX_HILL_SLOPE 5.55, HEPG2TOX_R_SQUARED 0.818, PBLUC_HILL_SLOPE 3.46, PBLUC_R_SQUARED 0.301, read-out: LUCIFERASE INFECTION ASSAY - IC50): 5.17 |
| S=C(NCc1ccccc1Cl)NC12CC3CC(CC(C3)C1)C2 | > 9.85 | pIC50 (HEPG2TOX_HILL_SLOPE 5.09, HEPG2TOX_R_SQUARED 0.92, PBLUC_HILL_SLOPE 1.78, PBLUC_R_SQUARED 0.451, read-out: LUCIFERASE INFECTION ASSAY - IC50): 5.13 |
| CCC(C)NC(=O)c1c(NC(=O)c2ccc(F)cc2)nc2ccc(C)cn12 (centres undefined) | 3.49 | pIC50 (HEPG2TOX_HILL_SLOPE 5.39, HEPG2TOX_R_SQUARED 0.713, PBLUC_HILL_SLOPE 10.6, PBLUC_R_SQUARED 0.548, read-out: LUCIFERASE INFECTION ASSAY - IC50): 5.55 |
| CN(CCOc1ccccc1)C(=O)c1ccc(Cl)c(S(=O)(=O)N(Cc2ccccc2)c2ccccc2)c1 | > 10 | pIC50 (HEPG2TOX_HILL_SLOPE 5.5, HEPG2TOX_R_SQUARED 0.0292, PBLUC_HILL_SLOPE 16, PBLUC_R_SQUARED 0.261, read-out: LUCIFERASE INFECTION ASSAY - IC50): 5.02 |
